These results are taken from patent publication US20100247707A1, “DIPEPTIDES AS FEED ADDITIVES” (EVONIK DEGUSSA GmbH, priority 2009, published 2010).

Series [1] deals with digestive enzymes from mirror carp. The experiment in a line: In vitro digestion of non-natural dipeptides LD-I / DL-II with digestive enzymes from mirror carp. In kind it is in vitro ADME, Cyprinus carpio morpha noblis. The settings on record: for portion of dipeptide cleaved: after 5 hours, in vitro reaction conditions; for speed of cleavage / digestion: non-natural dipeptides. As for the experimental part: (§1) For this, the enzymes were isolated from the digestive tracts of the fishes and shrimps. The chemically synthesized dipeptides L-EAA-D-Met (LD-I) and D-Met-L-EAA (DL-II) were then reacted with the enzyme solutions obtained. For better comparability of the digestibilities of dipeptides of various species, identical conditions were selected for the in vitro digestion studies (37° C., pH 9). All non-natural dipeptides L-EAA-D-Met (LD-I) and D-Met-L-EAA (DL-II) are cleaved by digestive enzymes of the omnivorous mirror carp (see FIG. 7), of the herbivorous grass carp (see FIG. 8), of the carnivorous rainbow trout (see FIG. 11), of the omnivorous whiteleg shrimp (see FIG. 10) and of the chicken (see FIG. 17). The cleavages of D-Met-L-EAA (DL-II) proceed somewhat more slowly than the cleavages of the analogous L-EAA-D-Met (LD-I) dipeptides. With digestive enzymes of the Tilapia (see FIG. 9), in contrast, D-Met-L-EAA (DL-II) could be cleaved more quickly than L-EAA-D-Met (LD-I) dipeptides. […] After just 5 hours, under in vitro reaction conditions the bulk of the lysine-containing dipeptides had been cleaved by all of the digestive enzymes used.
a) Isolation of the Digestive Enzymes from Mirror Carp (Cyprinus carpio morpha noblis)
The digestive enzymes were isolated according to the method of EID and MATTY (Aquaculture 1989, 79, 111-119). For this, the intestines were removed from five one-year-old mirror carp (Cyprinus carpio morpha noblis) and processed as described in Example 18.
(§2) b) Procedure for the In Vitro Digestion Studies
D-Met-L-EAA (DL-II) or L-EAA-D-Met (LD-I) was taken up in TRIS/HCl buffer solution and the enzyme solution was added. As comparison and to assess the rate of purely chemical cleavage, a blank without enzyme solution was prepared in each case (see Table 4). A sample was taken from time to time and its composition was detected and quantified by means of a calibrated HPLC. The conversion was determined as the quotient of the area of methionine and the area of D-Met-L-EAA (DL-II) or L-EAA-D-Met (LD-I) (see FIG. 7).

The subject of series [2] is digestive enzymes from rainbow trout. Kind of series: In vitro digestion of non-natural dipeptides LD-I / DL-II with digestive enzymes from rainbow trout. To be noted: for portion of dipeptide cleaved: after 5 hours, in vitro reaction conditions; for speed of cleavage / digestion: non-natural dipeptides. In kind it is in vitro ADME, Oncorhynchus mykiss. On the procedure:
as §1
a) Isolation of the Digestive Enzymes from Rainbow Trout (Oncorhynchus mykiss)
The digestive enzymes were isolated according to the method of EID and MATTY (Aquaculture 1989, 79, 111-119). For this, the intestines were removed from six one-year-old rainbow trout (Oncorhynchus mykiss) and processed as described in Example 18.
as §2
The in vitro investigations were carried out similarly to Example 19 (see Table 6, FIG. 11).

The test system of series [3] is digestive enzymes from whiteleg shrimps. Kind of series: In vitro digestion of non-natural dipeptides LD-I / DL-II with digestive enzymes from whiteleg shrimps. The settings on record: whiteleg shrimp enzymes; for portion of dipeptide cleaved: after 5 hours, in vitro reaction conditions; for speed of cleavage / digestion: non-natural dipeptides. In kind it is in vitro ADME, Litopenaeus vannamei. As for the experimental part:
as §1
a) Isolation of the Digestive Enzymes from Whiteleg Shrimps (Litopenaeus vannamei)
The digestive enzymes were isolated according to the method of Ezquerra and Garcia-Carreno (J. Food Biochem. 1999, 23, 59-74). For this, the hepatopancreas was removed from five kilograms of whiteleg shrimps (Litopenaeus vannamei) and comminuted in a mixer together with crushed ice. Further processing was carried out similarly to Example 18.
as §2
The in vitro investigations were carried out similarly to Example 19 (see Table 8, FIG. 10).

Series [4] has as its system digestive enzymes from chicken. Kind of series: In vitro digestion of non-natural dipeptides LD-I / DL-II with digestive enzymes from chicken. Type of series: in vitro ADME. To be noted: for portion of dipeptide cleaved: after 5 hours, in vitro reaction conditions; for speed of cleavage / digestion: non-natural dipeptides. On the procedure:
as §1
a) Isolation of the Digestive Enzymes from Chicken
The digestive enzymes were isolated according to the method of EID and MATTY (Aquaculture 1989, 79, 111-119). For this, the intestines were removed from a chicken and processed as described in Example 24.
as §2
D-Met-L-EAA (DL-II) or L-EAA-D-Met (LD-I) was taken up in TRIS/HCl buffer solution and the enzyme solution was added. As comparison and to assess the rate of purely chemical cleavage, a blank without enzyme solution was prepared in each case. A sample was taken from time to time and its composition was detected and quantified by means of a calibrated HPLC. The conversion was determined as the quotient of the area of methionine and the area of D-Met-L-EAA (DL-II) or L-EAA-D-Met (LD-I) (see Table 10, FIG. 17).

Series [5] deals with digestive enzymes of the herbivorous grass carp. Kind of series: In vitro digestion of non-natural dipeptides LD-I / DL-II with digestive enzymes from grass carp. In kind it is in vitro ADME. To be noted: for portion of dipeptide cleaved: after 5 hours, in vitro reaction conditions; for speed of cleavage / digestion: non-natural dipeptides. As for the experimental part:
as §1

Series [6] concerns digestive enzymes of the Tilapia. The experiment in a line: In vitro digestion of non-natural dipeptides LD-I / DL-II with digestive enzymes from Tilapia. To be noted: for portion of dipeptide cleaved: after 5 hours, in vitro reaction conditions; for speed of cleavage / digestion: non-natural dipeptides. In kind it is in vitro ADME. As for the experimental part: as §1
The subject of the next series is ruminants. To be noted: in ruminants, WO00/28835; cited from earlier work.
A further series relates to Litopenaeus vannamei. The settings on record: omnivorous shrimps Litopenaeus vannamei, Forster and Dominy 2006; cited from earlier work.

Turning to L-Lys-D-Met×2HCl [LD-Ie], the “portion of dipeptide cleaved” value in series [1], in series [2], in series [3], in series [4], in series [5] and in series [6] was “bulk” in each case. Also, the “speed of cleavage / digestion” value in series [1], in series [2], in series [3], in series [4], in series [5] and in series [6] was “particularly quickly” throughout.
For the compound `CSCCC(O)C(=O)OC(C)C` (racemic) [HMBi, racemic iso-propyl ester of MHA], in the series with ruminants, the bioavailability entry is recorded as “at least 50%”.
For the compound `CSCC[C@@H](N)C(=O)N[C@@H](CCCCN)C(=O)O.Cl.Cl` (racemic) [DL-IIe, D-Met-L-Lys×2HCl], the “portion of dipeptide cleaved” value in series [1], in series [2], in series [3], in series [4], in series [5] and in series [6] was “bulk” each time. Besides, the “speed of cleavage / digestion” value in series [1], in series [2], in series [3], in series [4], in series [5] and in series [6] was “particularly quickly” throughout.
For `CSCCC(N)C(=O)O` (racemic) [DL-methionine], the “effectiveness in feeding tests” value in the series on Litopenaeus vannamei is on record as “equally as effective as L-methionine”.
